# From patent publication US20180369327A1, “METHOD FOR TREATING OR PREVENTING OSTEOARTHRITIS” (Dong-A University Research Foundation for Industry-Academy …, priority 2017, published 2018)
# Entries after “also recorded” stand apart in the source; their conditions may differ.
# Legend:
# PKCK2 = assay: Immunohistochemistry of cartilage, PKCK2-positive cells, HFD-induced OA mouse model; type: in vivo; conditions: mice fed HFD, cilostazol 30 mg/kg/day orally 10 weeks; n=10
# Protocol: (§1) HFD-induced OA mouse model. Sixty mice were fed a normal chow diet for one week and then mice were fed an HFD or a SD for 25 weeks. Ten mice from each diet were used histologically examine the effect of high fat diet. Forty mice were used to examine the effect of cilostazol. Mice fed a SD or HFD for 15 weeks were orally administered cilostazol at concentrations of 30 mg/kg/day for additional 10 weeks. SD+vehicle mice (n=10) were fed a SD and received DMSO. SD+cilostazol mice (n=10) were fed a SD and received cilostazol. HFD+vehicle mice (n=10) were fed a HFD and received DMSO. HFD+cilostazol mice (n=10) were fed a HFD and received cilostazol. Immunohistochemical observation and analysis. Tissue sections were incubated in 1:70-diluted goat serum solution for 30 minutes at room temperature, and then for 2 hours with 1:100-diluted primary antibody at room temperature. Next, sections were incubated with secondary antibody for 1 hour at 37° C. and developed using ABC complex. […] Histological images were observed and analyzed using a Aperio ScanScope® CS system. Total numbers of positive for […]27 and STAMP2 in four fields per animal were counted by an observer blinded to the experiment and the percentage of positive cells were calculated.
# STAMP2 [1] = assay: Western blot of STAMP2 protein in articular chondrocytes; type: cell-based, rat; conditions: 30 μM cilostazol, 1.5 mM oleate; n=4
# Protocol: Rat articular chondrocytes for primary culture were isolated from knee joint cartilage slices by enzymatic digestion for 1 h with 0.2% type II collagenase (381 units/mg) in DMEM. After the isolated cells were collected by brief centrifugation, they were resuspended in DMEM supplemented with 10% (v/v) FBS, […] streptomycin and 50 units/ml penicillin (Gibco). The cells were plated on culture dishes at a density of 5×10^4 cells/cm^2. The medium was replaced every 2 days, and they reached confluence after approximately 5 days in culture. In each experiment, the cells from three animals were pooled and analyzed three times. FFA were dissolved in absolute ethanol at a concentration of 500 mM and diluted to final concentrations of FFAs with the appropriate concentration of 1% (w/v) FFA-free BSA. Controls were incubated with equal concentrations of FFA-free BSA containing ethanol. […] Cell (2×10^6) were washed twice with ice-cold PBS. Cells were resuspended in lysis buffer [200 ll of icecold solubilizing buffer (300 mM NaCl, 50 mM Tris-Cl (pH 7.6), 0.5% Triton X-100, protease inhibitor cocktail)] and incubated at 4° C. for 30 min. The lysates were centrifuged at 14,000 rpm for 20 min at 4° C. The protein concentrations of the cell lysates were measured with the Bradford protein assay reagent (Bio-Rad). Then, 50 μg of proteins was loaded onto 15 SDS-PAGE. The separated proteins were transferred to nitrocellulose membranes (Amersham Pharmacia Biotech, Piscataway, N.J., USA) and probed with each antibody. Immunostaining with the antibodies was carried out using the Super Signal West Pico enhanced chemiluminescence substrate and detected with LAS-3000PLUS.
# [2] = test system: HFD-induced cartilage destruction; assay: HFD-induced OA mouse model, histologic examination of cartilage; type: in vivo; conditions: mice fed HFD 25 weeks, cilostazol 30 mg/kg/day orally for the last 10 weeks; n=10
# Protocol: All procedures for animal study were approved by the Committee on Animal Investigations at Dong-A University (DIACUC-15-12). Seven-week-old male C57BL/6 mice were obtained from Samtoko (Osan, Korea). Mice were maintained in a temperature-controlled room (22° C.) on a 12:12 h light-dark cycle and free access to water and food. HFD-induced OA mouse model. Sixty mice were fed a normal chow diet for one week and then mice were fed an HFD or a SD for 25 weeks. Ten mice from each diet were used histologically examine the effect of high fat diet. Forty mice were used to examine the effect of cilostazol. Mice fed a SD or HFD for 15 weeks were orally administered cilostazol at concentrations of 30 mg/kg/day for additional 10 weeks. SD+vehicle mice (n=10) were fed a SD and received DMSO. SD+cilostazol mice (n=10) were fed a SD and received cilostazol. HFD+vehicle mice (n=10) were fed a HFD and received DMSO. HFD+cilostazol mice (n=10) were fed a HFD and received cilostazol. Tissue preparation and histologic examination. Animals were killed by ether inhalation. Whole knee joints were removed by dissection, fixed in PBS (pH 7.4) containing 4% paraformaldehyde, decalcified in 12.5% EDTA, dehydrated, and embedded in paraffin blocks. Five-micrometer microsections were prepared and stained with hematoxylin and eosin and with Safranin O-fast green.
# STAMP2 [3] = assay: Immunohistochemistry of cartilage, STAMP2-positive cells, HFD-induced OA mouse model; type: in vivo; conditions: mice fed HFD, cilostazol 30 mg/kg/day orally 10 weeks; n=10
# Protocol: as §1
# [4] = test system: lipid droplets (LD) in rat articular chondrocytes; assay: Lipid droplet staining (Nile red, BODIPY), confocal microscopy and quantification; type: cell-based
# Protocol: Rat articular chondrocytes for primary culture were isolated from knee joint cartilage slices by enzymatic digestion for 1 h with 0.2% type II collagenase (381 units/mg) in DMEM. After the isolated cells were collected by brief centrifugation, they were resuspended in DMEM supplemented with 10% (v/v) FBS, […] streptomycin and 50 units/ml penicillin (Gibco). The cells were plated on culture dishes at a density of 5×10^4 cells/cm^2. The medium was replaced every 2 days, and they reached confluence after approximately 5 days in culture. In each experiment, the cells from three animals were pooled and analyzed three times. FFA were dissolved in absolute ethanol at a concentration of 500 mM and diluted to final concentrations of FFAs with the appropriate concentration of 1% (w/v) FFA-free BSA. Controls were incubated with equal concentrations of FFA-free BSA containing ethanol. […] Cells cultured on a coverslip were incubated with diluted Nile red or BODIPY 493/503. Some sections were double-labelled with TUNEL and BODIPY 493/503 and counterstained with Hoechst 33342. Fluorescence images were observed and analyzed using a Zeiss LSM 510 laser-scanning confocal microscope (Goettingen, Germany). Twenty cells from each experiment were observed and auantification of fluorescence intensity of the confocal images were obtained with the use of ImageJ software. Fluorescence intensity was expressed as AU.
compound,measurement,setting,value
O=C1CCc2cc(OCCCCc3nnnn3C3CCCCC3)ccc2N1 [cilostazol],population of PKCK2-positive cells,PKCK2,significantly increased
same,effect on oleate-induced downregulation of STAMP2,STAMP2 [1],completely reversed the downregulation of STAMP2 induced by oleate; also recorded: reversed the 1.5 mM oleate (O)-induced downregulation of STAMP2
same,HFD-induced cartilage destruction,[2],markedly prevented the HFD-induced cartilage destruction
same,population of STAMP2-positive cells,STAMP2 [3],significantly increased
same,LD size and LD accumulation,"[4]; 30 μM cilostazol, 1.5 mM oleate",increases LD size and LD accumulation
same,LD accumulation,[4]; cilostazol in cells treated with 0.4 mM oleate and 1.6 mM palmitate,augmented the LD accumulation
same,total LD volume,"[4]; cilostazol versus 1.5 mM oleate alone, n=4",significantly increased
same,oleate-induced LD fragmentation,"[4]; cilostazol, 1.5 mM oleate, n=4",prevented oleate-induced LD fragmentation
